Key:
KRAS Q61H = KRAS Q61H (Homo sapiens, UniProt P01116+P62937, Q61H); experiment: Disruption of BRAF RBD interaction with Ras (FRET / MOA assay, with Cyclophilin A); assay type: biochemical; conditions: KRAS Q61H; read-out: KRAS Q61H FRET data IC50
Method in brief: (§1)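 TR-FRET in 25 mM HEPES pH 7.3, 100 mM NaCl, 5 mM MgCl2, 0.1% BSA: 25 μM Cyclophilin A, 12.5 nM His6-Ras-GMPPNP, 50 nM GST-BRAF RBD with compound (10-point 3-fold series from 30 μM), 3 h at 25° C. Anti-His Eu/anti-GST APC added, 1.5 h more; IC50 from decreased FRET ratio versus DMSO.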

NRAS Q61K = NRAS Q61K (Homo sapiens, UniProt P01111+P62937, Q61K); experiment: as above; assay type: biochemical; conditions: NRAS Q61K; read-out: NRAS Q61K FRET data IC50
Sequence of NRAS Q61K (P01111 whole entry Q61K): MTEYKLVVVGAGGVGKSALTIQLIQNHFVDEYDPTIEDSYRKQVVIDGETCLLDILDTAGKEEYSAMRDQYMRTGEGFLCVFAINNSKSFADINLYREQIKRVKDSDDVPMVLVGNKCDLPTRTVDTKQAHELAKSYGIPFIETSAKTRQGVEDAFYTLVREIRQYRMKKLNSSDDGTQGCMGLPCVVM
Sequence of NRAS Q61K (P62937 whole entry): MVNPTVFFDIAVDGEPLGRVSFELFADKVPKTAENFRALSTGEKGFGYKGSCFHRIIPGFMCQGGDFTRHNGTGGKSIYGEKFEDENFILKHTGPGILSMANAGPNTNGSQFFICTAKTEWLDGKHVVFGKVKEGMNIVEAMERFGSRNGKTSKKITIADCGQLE
Method in brief: as §1

NRAS Q61R = NRAS Q61R (Homo sapiens, UniProt P01111+P62937, Q61R); experiment: as above; assay type: biochemical; conditions: NRAS Q61R; read-out: NRAS Q61R FRET data IC50
Sequence of NRAS Q61R (P01111 whole entry Q61R): as the sequence (P01111 whole entry Q61K) above, with K61R counted along it
Sequence of NRAS Q61R (P62937 whole entry): as the sequence (P62937 whole entry) above
Method in brief: as §1

NCI-H358 (K-Ras G12C) = experiment: CellTiter-Glo cell viability assay, 5-day treatment; assay type: cell-based; conditions: Homo sapiens, NCI-H358, H358, K-Ras G12C; read-out: Additional H358 Cell Viability assay data (K-Ras G12C, IC50)
Method in brief: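 Viability is read as luminescence on day 5 after direct compound addition to plated cells, following about 30 minutes' room-temperature equilibration. Each signal is scaled to mean DMSO as 100%.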

Sequence of KRAS Q61H (P01116 1-169 isoform P01116-2 Q61H limits assumed): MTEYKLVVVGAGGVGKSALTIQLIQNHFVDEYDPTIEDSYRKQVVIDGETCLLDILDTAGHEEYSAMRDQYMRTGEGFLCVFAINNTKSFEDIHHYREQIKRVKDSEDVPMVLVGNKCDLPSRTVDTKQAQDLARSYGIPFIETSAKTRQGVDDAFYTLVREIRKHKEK
Sequence of KRAS Q61H (P62937 whole entry): as the sequence (P62937 whole entry) above

IC50 (KRAS Q61H) [nM] | IC50 (NRAS Q61K) [nM] | IC50 (NRAS Q61R) [nM] | IC50 (NCI-H358 (K-Ras G12C)) [nM] | Compound
1000 to 10000 | 1000 to 10000 | 1000 to 10000 | 100 to 1000 | C=CC(=O)N1CC[C@]2(C1)OCN(C(=O)N(C)[C@H](C(=O)N[C@H]1Cc3cccc(n3)-c3ccc4c(c3)c(c(-c3cccnc3[C@H](C)OC)n4CC)CC(C)(C)COC(=O)[C@@H]3CCCN(N3)C1=O)C(C)C)C2=O (atropisomer, axis not shown) [Example A652]
1000 to 10000 | 1000 to 10000 | > 10000 | < 10 | CCn1c(-c2cccnc2[C@H](C)OC)c2c3cc(ccc31)-c1csc(n1)C[C@H](NC(=O)[C@H](COC1CN(C(=O)C#CC(C)(C)N(C)C)C1)OC)C(=O)N1CCC[C@H](N1)C(=O)OCC(C)(C)C2 (atropisomer, axis not shown) [Example A705]
100 to 1000 | 1000 to 10000 | 1000 to 10000 | 10 to 100 | C=CC(=O)N1CC(OC[C@H](C(=O)N[C@H]2Cc3cc(F)cc(c3)-c3ccc4c(c3)c(c(-c3cccnc3[C@H](C)OC)n4CC)CC(C)(C)COC(=O)[C@@H]3CCCN(N3)C2=O)C(C)C)C1 (atropisomer, axis not shown) [Example A725]
100 to 1000 | 100 to 1000 | 100 to 1000 | 10 to 100 | C=CC(=O)N1CC[C@@H](N(C)C(=O)N(C)[C@H](C(=O)N[C@H]2Cc3nc(cs3)-c3ccc4c(c3)c(c(-c3cccnc3[C@H](C)OC)n4CC(F)(F)F)CC(C)(C)COC(=O)[C@@H]3CCCN(N3)C2=O)C(C)C)C1 (atropisomer, axis not shown) [Example A728]
10 to 100 | 10 to 100 | 100 to 1000 | < 10 | C=CC(=O)N1CC[C@@]2(CCN2C(=O)N(C)[C@H](C(=O)N[C@H]2Cc3nc(cs3)-c3ccc4c(c3)c(c(-c3cccnc3[C@H](C)OC)n4CC)CC(C)(C)COC(=O)C3CCCN(N3)C2=O)N(C)C)C1 (single isomer, unassigned) [Example A661]
1000 to 10000 | 1000 to 10000 | 1000 to 10000 | 10 to 100 | CC#CC(=O)N1CC[C@H](C(=O)N(C)[C@H](C(=O)N[C@H]2Cc3nc(cs3)-c3ccc4c(c3)c(c(-c3cccnc3[C@H](C)OC)n4CC)CC(C)(C)COC(=O)[C@@H]3CCCN(N3)C2=O)C(C)C)C1 [Example A168]
> 10000 | > 10000 | > 10000 | 100 to 1000 | C=CS(=O)(=O)N1CC[C@H](C(=O)N(C)[C@H](C(=O)N[C@H]2Cc3nc(cs3)-c3ccc4c(c3)c(c(-c3cncnc3)n4CC)CC(C)(C)COC(=O)[C@@H]3CCCN(N3)C2=O)C(C)C)C1 [Example A170]
1000 to 10000 | 1000 to 10000 | > 10000 |  | C=CC(=O)N1CC[C@H](C(=O)N(C)[C@H](C(=O)N[C@H]2Cc3cc(O)cc(c3)-c3cnc4c(c3)c(c(-c3ccccc3CCOC)n4CC)CC(C)(C)COC(=O)[C@@H]3CCCN(N3)C2=O)C(C)C)C1 [Example A210]
10 to 100 | 100 to 1000 | 100 to 1000 | < 10 | C=CC(=O)N1CC[C@H](C(=O)N(C)[C@H](C(=O)N[C@H]2Cc3cc(O)cc(c3)-c3ccc4c(c3)c(c(-c3ccnc5c3[C@@H](OC)CC5)n4CC)CC(C)(C)COC(=O)[C@@H]3CCCN(N3)C2=O)C(C)C)C1 [Example A275]
10 to 100 | 10 to 100 | 100 to 1000 | 10 to 100 | C=CC(=O)N1CC[C@@H](N(C)C(=O)N(C)[C@H](C(=O)N[C@H]2Cc3nc(cs3)-c3ccc4c(c3)c(c(-c3cccnc3[C@H](C)OC)n4CC)CC(C)(C)COC(=O)[C@@H]3CCCN(N3)C2=O)C(C)C)C1 [Example A349]
10 to 100 | 10 to 100 | 100 to 1000 | < 10 | C=CC(=O)N(C)C1CCN(C(=O)N(C)[C@H](C(=O)N[C@H]2Cc3nc(cs3)-c3ccc4c(c3)c(c(-c3cccnc3[C@H](C)OC)n4CC)CC(C)(C)COC(=O)[C@@H]3CCCN(N3)C2=O)C(C)C)C1 (some centres unmarked) [Example A384]
1000 to 10000 | 1000 to 10000 | 1000 to 10000 | < 10 | CCn1c(-c2cccnc2[C@H](C)OC)c2c3cc(ccc31)N1CCO[C@@](C)(CC(NC(=O)[C@H](C(C)C)N(C)C(=O)C3(F)CCN(C(=O)C#CC(C)(C)N(C)C)CC3)C(=O)N3CCC[C@H](N3)C(=O)OCC(C)(C)C2)C1 (some centres unmarked) [Example A550]
1000 to 10000 | > 10000 | > 10000 | 10 to 100 | CCn1c(-c2cccnc2[C@H](C)OC)c2c3cc(ccc31)-c1cccc(c1)C[C@H](NC(=O)[C@H](C(C)C)N1CC[C@]3(CCN(C(=O)C#C[C@@H]4COCCN4C4COC4)C3)C1=O)C(=O)N1CCC[C@H](N1)C(=O)OCC(C)(C)C2 [Example A565]
10 to 100 | 10 to 100 | 10 to 100 | < 10 | C=CC(=O)N1CCO[C@@]2(CCN(C(=O)N(C)[C@H](C(=O)N[C@H]3Cc4nc(cs4)-c4ccc5c(c4)c(c(-c4cccnc4[C@H](C)OC)n5CC(F)(F)F)CC(C)(C)COC(=O)C4CCCN(N4)C3=O)C(C)C)C2)C1 (some centres unmarked) [Example A594]

Compound | IC50 (KRAS Q61H) [nM] | IC50 (NRAS Q61K) [nM] | IC50 (NRAS Q61R) [nM] | IC50 (NCI-H358 (K-Ras G12C)) [nM]
CCn1c(-c2cccnc2[C@H](C)OC)c2c3cc(ccc31)-c1csc(n1)C[C@H](NC(=O)[C@H](C(C)C)N(C)C(=O)N(C)C1CN(C(=O)/C=C/C(C)(C)O)C1)C(=O)N1CCC[C@H](N1)C(=O)OCC(C)(C)C2 (atropisomer, axis not shown) [Example A350] | 10 to 100 | 10 to 100 | 100 to 1000 | 100 to 1000
CCn1c(-c2cccnc2[C@H](C)OC)c2c3cc(ccc31)-c1cccc(c1)C[C@H](NC(=O)[C@@H](COC1CN(C(=O)C#C[C@@H]3COCCN3C)C1)C(C)C)C(=O)N1CCC[C@H](N1)C(=O)OCC(C)(C)C2 (atropisomer, axis not shown) [Example A648] | > 10000 | > 10000 | > 10000 | 10 to 100
C=CC(=O)N1CC[C@H](C(=O)N(C)[C@H](C(=O)N[C@H]2Cc3nsc(n3)-c3ccc4c(c3)c(c(-c3cccnc3[C@H](C)OC)n4CC)CC(C)(C)COC(=O)[C@@H]3CCCN(N3)C2=O)C(C)C)C1 (atropisomer, axis not shown) [Example A694] | 100 to 1000 | 100 to 1000 | 1000 to 10000 | 10 to 100
C=CC(=O)N1CC[C@H](C(=O)N(C)[C@H](C(=O)N[C@H]2Cc3cc(O)cc(c3)-c3ccc4c(c3)c(c(-c3cccnc3)n4C3CC3)CC(C)(C)COC(=O)[C@@H]3CCCN(N3)C2=O)C(C)C)C1 [Example A160] | 1000 to 10000 | > 10000 | > 10000 | 100 to 1000
C=CC(=O)N1CC[C@H](C(=O)N(C)[C@H](C(=O)N[C@H]2Cc3cc(O)cc(c3)-c3ccc4c(c3)c(c(-c3cc(C)cnc3[C@H](C)OC)n4CC)CC(C)(C)COC(=O)[C@@H]3CCCN(N3)C2=O)C(C)C)C1 [Example A167] | 10 to 100 | 100 to 1000 | 100 to 1000 | 10 to 100
CCn1c(-c2cccnc2[C@H](C)OC)c2c3cc(ccc31)-c1csc(n1)C[C@H](NC(=O)[C@H](C(C)C)N(C)C(=O)N1CC(N(C)C(=O)C#CC(C)(C)N3CCC3)C1)C(=O)N1CCC[C@H](N1)C(=O)OCC(C)(C)C2 [Example A379] | 10 to 100 | 100 to 1000 | 100 to 1000 | < 10
C=CC(=O)N1CCO[C@H]2CN(C(=O)N(C)[C@H](C(=O)N[C@H]3CN4CCC=C(C4)c4ccc5c(c4)c(c(-c4cccnc4[C@H](C)OC)n5CC)CC(C)(C)COC(=O)[C@@H]4CCCN(N4)C3=O)C(C)C)C[C@H]21 [Example A552] | 100 to 1000 | 1000 to 10000 | 1000 to 10000 | < 10
CO[C@@H](COC1CN(C(=O)C#CC(C)(C)N(C)C)C1)C(=O)N[C@H]1Cc2cccc(c2)-c2ccc3c(c2)c(c(-c2cccnc2[C@H](C)OC)n3CC(F)(F)F)CC(C)(C)COC(=O)[C@@H]2CCCN(N2)C1=O [Example A556] |  | > 10000 | > 10000 | < 10
CCn1c(-c2cccnc2[C@H](C)OC)c2c3cc(ccc31)-c1cccc(c1)C[C@H](NC(=O)[C@H](C(C)C)N1CC[C@]3(CCN(C(=O)C#C[C@]4(N(C)C)CCOC4)C3)C1=O)C(=O)N1CCC[C@H](N1)C(=O)OCC(C)(C)C2 [Example A559] | 100 to 1000 | 1000 to 10000 | 1000 to 10000 | < 10
C=CC(=O)N1CCOC2(CCN(C(=O)N(C)[C@H](C(=O)N[C@H]3CN4CCC=C(C4)c4ccc5c(c4)c(c(-c4cccnc4[C@H](C)OC)n5CC)CC(C)(C)COC(=O)[C@@H]4CCCN(N4)C3=O)C(C)C)CC2)C1 [Example A563] | 1000 to 10000 | 1000 to 10000 | > 10000 | 100 to 1000
CCn1c(-c2cccnc2[C@H](C)OC)c2c3cc(ccc31)-c1cccc(c1)C[C@H](NC(=O)[C@@H](CN1CC[C@]3(CCN(C(=O)C#C[C@H]4COCCN4C)C3)C1=O)C(C)C)C(=O)N1CCCC(N1)C(=O)OCC(C)(C)C2 (some centres unmarked) [Example A592] | 1000 to 10000 | > 10000 | > 10000 | < 10
CCn1c(-c2cccnc2[C@H](C)OC)c2c3cc(ccc31)N1CCO[C@@H](C[C@H](NC(=O)[C@H](C(C)C)N(C)C(=O)[C@@]3(F)CCN(C(=O)C#CC(C)(C)N4CCC4)C3)C(=O)N3CCC[C@H](N3)C(=O)OCC(C)(C)C2)C1 [Example A726] |  | > 10000 | > 10000 | < 10

Source: patent publication US20230233569A1 (Revolution Medicines, Inc., priority 2020, published 2023)
